Assay results published in PubChem BioAssay (NCI).
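Compound exposure: 48 hours, 5 concentrations, 96-well plates. The concentration for full growth arrest is given as TGI.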

test system: 786-0 renal; assay: NCI anticancer screen, dose series, 48 h

`CC1=CC(C/C(C)=C/COc2ccc3ccc(=O)oc3c2)OC1=O` (centres undefined) and `COc1ccc2cc(C(C)C(=O)N3CCOC3=O)ccc2c1` (centres undefined) cannot be ordered by TGI: greater than 100 µM for the first, greater than 100 µM for the second.

Going from `CN1[C@@H]2C[C@@H](OC(=O)[C@H](CO)c3ccccc3)C[C@H]1[C@@H]1O[C@@H]12` to `N#Cc1c(Cl)cc(Cl)n2c1nc1ccccc12`, the TGI falls from greater than 100 µM to 7.63 µM.

Going from `CC1=C(O)C(=O)C=C2C1=CC=C1[C@@]2(C)CC[C@@]2(C)[C@@H]3C[C@](C)(C(=O)O)CC[C@]3(C)CC[C@]12C` to `COc1nc2nccnc2c(=O)n1C`, the TGI rises from 0.0294 µM to greater than 10 µM.

In the case of `CCOC(=O)NC(Nc1cccc(C(F)(F)F)c1)(C(F)(F)F)C(F)(F)F`, the TGI is reported as greater than 100 µM.

test system: A498 renal; assay: NCI anticancer screen, dose series, 48 h

`CN1[C@@H]2C[C@@H](OC(=O)[C@H](CO)c3ccccc3)C[C@H]1[C@@H]1O[C@@H]12` and `COc1ccc2cc(C(C)C(=O)N3CCOC3=O)ccc2c1` (centres undefined) cannot be ordered by TGI: greater than 100 µM for the first, greater than 100 µM for the second.

`N#Cc1c(Cl)cc(Cl)n2c1nc1ccccc12` and `COc1nc2nccnc2c(=O)n1C` cannot be ordered by TGI: 47.3 µM for the first, greater than 10 µM for the second.

Going from `CC1=C(O)C(=O)C=C2C1=CC=C1[C@@]2(C)CC[C@@]2(C)[C@@H]3C[C@](C)(C(=O)O)CC[C@]3(C)CC[C@]12C` to `CCOC(=O)NC(Nc1cccc(C(F)(F)F)c1)(C(F)(F)F)C(F)(F)F`, the TGI rises from 0.142 µM to greater than 100 µM.

test system: A549 NSCLC; assay: NCI anticancer screen, dose series, 48 h

`CC1=CC(C/C(C)=C/COc2ccc3ccc(=O)oc3c2)OC1=O` (centres undefined) and `COc1ccc2cc(C(C)C(=O)N3CCOC3=O)ccc2c1` (centres undefined) cannot be ordered by TGI: greater than 100 µM for the first, greater than 100 µM for the second.

Going from `CN1[C@@H]2C[C@@H](OC(=O)[C@H](CO)c3ccccc3)C[C@H]1[C@@H]1O[C@@H]12` to `N#Cc1c(Cl)cc(Cl)n2c1nc1ccccc12`, the TGI falls from greater than 100 µM to 34.7 µM.

First: CC1=C(O)C(=O)C=C2C1=CC=C1[C@@]2(C)CC[C@@]2(C)[C@@H]3C[C@](C)(C(=O)O)CC[C@]3(C)CC[C@]12C
Second: COc1nc2nccnc2c(=O)n1C
The TGI of the first is lower: 2.03 µM for the first, greater than 10 µM for the second.

For `CCOC(=O)NC(Nc1cccc(C(F)(F)F)c1)(C(F)(F)F)C(F)(F)F`, the TGI was greater than 100 µM.

test system: ACHN renal; assay: NCI anticancer screen, dose series, 48 h

`CC1=CC(C/C(C)=C/COc2ccc3ccc(=O)oc3c2)OC1=O` (centres undefined) and `COc1ccc2cc(C(C)C(=O)N3CCOC3=O)ccc2c1` (centres undefined) cannot be ordered by TGI: greater than 100 µM for the first, greater than 100 µM for the second.

Going from `CN1[C@@H]2C[C@@H](OC(=O)[C@H](CO)c3ccccc3)C[C@H]1[C@@H]1O[C@@H]12` to `N#Cc1c(Cl)cc(Cl)n2c1nc1ccccc12`, the TGI falls from greater than 100 µM to 6.65 µM.

Going from `CC1=C(O)C(=O)C=C2C1=CC=C1[C@@]2(C)CC[C@@]2(C)[C@@H]3C[C@](C)(C(=O)O)CC[C@]3(C)CC[C@]12C` to `COc1nc2nccnc2c(=O)n1C`, the TGI rises from 0.0459 µM to greater than 10 µM.

In the case of `CCOC(=O)NC(Nc1cccc(C(F)(F)F)c1)(C(F)(F)F)C(F)(F)F`, the TGI is reported as greater than 100 µM.

test system: BT-549 breast; assay: NCI anticancer screen, dose series, 48 h

`CC1=CC(C/C(C)=C/COc2ccc3ccc(=O)oc3c2)OC1=O` (centres undefined) and `COc1ccc2cc(C(C)C(=O)N3CCOC3=O)ccc2c1` (centres undefined) cannot be ordered by TGI: greater than 100 µM for the first, greater than 100 µM for the second.

Going from `CN1[C@@H]2C[C@@H](OC(=O)[C@H](CO)c3ccccc3)C[C@H]1[C@@H]1O[C@@H]12` to `N#Cc1c(Cl)cc(Cl)n2c1nc1ccccc12`, the TGI falls from greater than 100 µM to 15.5 µM.

First: CC1=C(O)C(=O)C=C2C1=CC=C1[C@@]2(C)CC[C@@]2(C)[C@@H]3C[C@](C)(C(=O)O)CC[C@]3(C)CC[C@]12C
Second: COc1nc2nccnc2c(=O)n1C
The TGI of the first is lower: 0.0347 µM for the first, greater than 10 µM for the second.

`CCOC(=O)NC(Nc1cccc(C(F)(F)F)c1)(C(F)(F)F)C(F)(F)F` was tested, and the TGI was greater than 100 µM.

test system: CAKI-1 renal; assay: NCI anticancer screen, dose series, 48 h

`CC1=CC(C/C(C)=C/COc2ccc3ccc(=O)oc3c2)OC1=O` (centres undefined) and `COc1ccc2cc(C(C)C(=O)N3CCOC3=O)ccc2c1` (centres undefined) cannot be ordered by TGI: greater than 100 µM for the first, greater than 100 µM for the second.

First: CN1[C@@H]2C[C@@H](OC(=O)[C@H](CO)c3ccccc3)C[C@H]1[C@@H]1O[C@@H]12
Second: N#Cc1c(Cl)cc(Cl)n2c1nc1ccccc12
The TGI of the first is higher: greater than 100 µM for the first, 7.67 µM for the second.

Compared with `CC1=C(O)C(=O)C=C2C1=CC=C1[C@@]2(C)CC[C@@]2(C)[C@@H]3C[C@](C)(C(=O)O)CC[C@]3(C)CC[C@]12C`, `COc1nc2nccnc2c(=O)n1C` is higher in TGI: 0.0375 µM for the first, greater than 10 µM for the second.

Compound `CCOC(=O)NC(Nc1cccc(C(F)(F)F)c1)(C(F)(F)F)C(F)(F)F` has a TGI greater than 100 µM.

test system: CCRF-CEM leukemia; assay: NCI anticancer screen, dose series, 48 h

`CC1=CC(C/C(C)=C/COc2ccc3ccc(=O)oc3c2)OC1=O` (centres undefined) and `COc1ccc2cc(C(C)C(=O)N3CCOC3=O)ccc2c1` (centres undefined) cannot be ordered by TGI: greater than 100 µM for the first, greater than 100 µM for the second.

`CN1[C@@H]2C[C@@H](OC(=O)[C@H](CO)c3ccccc3)C[C@H]1[C@@H]1O[C@@H]12` and `N#Cc1c(Cl)cc(Cl)n2c1nc1ccccc12` cannot be ordered by TGI: greater than 100 µM for the first, greater than 100 µM for the second.

First: CC1=C(O)C(=O)C=C2C1=CC=C1[C@@]2(C)CC[C@@]2(C)[C@@H]3C[C@](C)(C(=O)O)CC[C@]3(C)CC[C@]12C
Second: COc1nc2nccnc2c(=O)n1C
The TGI of the first is lower: 0.15 µM for the first, greater than 10 µM for the second.

With `CCOC(=O)NC(Nc1cccc(C(F)(F)F)c1)(C(F)(F)F)C(F)(F)F` the TGI was greater than 100 µM.

test system: COLO 205 colon; assay: NCI anticancer screen, dose series, 48 h

In the case of `CC1=CC(C/C(C)=C/COc2ccc3ccc(=O)oc3c2)OC1=O` (centres undefined), the TGI is reported as greater than 100 µM.
